≈ marks a conversion by molar mass, not a printed value. Where two headings read alike, the source gives them in different places.
Assays:
[1] = Pharmacokinetics of ezogabine prodrugs in mouse (SC, PO); conditions: male mice, PO 20 mg/kg, analyte Cmpd 1
Procedure: (§1) Blood was diluted by 10% with these stabilizers.
(§2) Extraction of the molecules was conducted by taking a 50 uL aliquot of plasma and adding 200 uL of acetonitrile containing 200 ng/mL tolbutamide as the internal standard. Samples were precipitated in a 96 well plate, centrifuges and an aliquot transferred to a new plate, dried down under heat and nitrogen and then reconstituted in the initial mobile phase conditions of the LC-MS/MS method. […] A standard curve was prepared from 5000 ng/mL to 1 ng/mL for each analyte. Concentration data from the bioanalytical run was analyzed by Phoenix Winnonlin version 8 for noncompartmental sparse sampling PK analysis, plotting of concentration time curves and tabulation of PK parameters.
Animals were asphyxiated by carbon dioxide gas, blood was collected by cardiac stick and they were euthanized by cervical dislocation.

[2] = Pharmacokinetics of ezogabine prodrugs in rat (IV, IM, PO)
Procedure: as §1
as §2, with “noncompartmental” for “noncompartmental sparse sampling”
150 uL of blood were collected at predesignated time points. At completion of the study animals were asphyxiated by carbon dioxide gas and exsanguinated for euthanasia.

Human Kv7.2/7.3 = Human Kv7.2/7.3 (Homo sapiens, UniProt O43525+O43526); assay: In vitro screen of Kv7.2/7.3 voltage gated potassium channels (FluxOR, FLIPR); type: cell-based
Procedure: Human Kv7.2/7.3 cells are harvested, counted and seeded in black, clear-bottomed 96 well plates at a density of 50,000 cells per well in 100 μl volume and incubated overnight. The following day, media was removed and 40 μl of loading buffer (4.895 mL HBSS:HEPES, 50 μL probenecid, 50 μL power load, 5 μl FluxOR reagent) was added and incubated at room temperature for 30 minutes. After incubation loading buffer was removed and 40 μl of assay buffer added (4.45 ml HBSS:HEPES, 500 μl FluxOR assay buffer and 50 μL probenecid) and incubated for 10 minutes.

[3] = type: physicochemical; conditions: for % Conversion to dimer / Concentration of dimer: 8 mg/mL in SGF, 38° C.
Description: The structure of the dimer is presented.

[4] = Acid and organic solution stability, HPLC-UV 250 nm; conditions: 5 mg/mL
Procedure: An HPLC-UV Vis method was developed using 0.1% Formic acid in water as mobile phase A and 0.1% Formic acid in acetonitrile as mobile Phase B. A gradient method was developed ramping from 10% A to 90% B over 8 minutes and then returning to 10% A at 8.5 minutes on a 4.6×50 mm Zorbax C-18 column. Injections of 10 uL of stability solutions were injected for analyte detection.
[…] Aliquots were collected at serial time points and then diluted to a nominal concentration of 100 ug/mL for injection to the HPLC and 250 nm monitored by the diode array detector. Data at approximately 10 days is presented.
Aliquots were collected at serial time points and then diluted to a nominal concentration of 100 ug/mL for injection to the HPLC and 250 nm monitored by the diode array detector.
(§3) It was also evaluated at 2 N HCl at 37° C. Aliquots were collected at serial time points and then diluted to a nominal concentration of 100 ug/mL for injection to the HPLC and 250 nm monitored by the diode array detector.
as §3, §3, §3

[5] = known value, cited from earlier work
[6] = in solvent, exposed to light; known; cited from earlier work
[7] = patients receiving ezogabine (POTIGA); Potiga label; cited from earlier work
[8] = Solvent solubility assessment by visual inspection; type: physicochemical
Procedure: Compounds were weighed and placed into a 4 dram vials and solvents were added to the target concentration. Compounds were vortex and visually inspected for particulates and considered soluble if clear upon visual inspection with and without magnification. Solubility was reported as either greater than (>) or less than (<) from the prepared concentration. […] It was evaluated at 10 mg/mL in 0.1 N NaCl and was freely soluble. It was evaluate at 1 mg/mL in 0.1 N NaOH and 0.1 N Na2HPO4 and was freely soluble. In ethanol and methanol it was freely soluble at a concentration of 75 mg/mL. […] It was freely soluble at 75 mg/mL in methanol and ethanol. It was soluble at 1 mg/mL in 1N HCl.

[9] = Benchtop solvent stability exposed to light, HPLC-UV 230 nm, up to 7 days; type: physicochemical; conditions: over 4 days
Procedure: Compounds in solvent were left on the benchtop exposed to light for up to 7 days since it is known that Compound 1 will degrade with light within 3-7 days.
Stability was assessed by taking an aliquot from the solubility vials at each test day. A single replicate was injected for each test condition.
Samples were injected onto an HPLC system with an aqueous mobile phase and acetonitrile organic phase and compounds were separated on a C8 50×2 mm column. Wavelength 230 nm was monitored for absorption and integrated for peak area while the mass spectrometer was used to confirm mass. Samples were tested on Day 1 and on subsequent days through Day 7.

[10] = 1000 ng/mL
Procedure: Plasma was collected by the biomaterial vendor and kept frozen at −20° C.
The samples were analyzed by HPLC separation and mass spectrometry detection for prodrug amount, relative to a baseline time 0 control sample. Triplicate samples were generated at each time point and the peak area response was averaged and converted to a percent of baseline control.

[11] = test system: MES induced seizures in Rat; assay: SD rat MES test after IM administration; type: in vivo; conditions: SD rats, IM 75 mg/kg
Procedure: All treatments were at 0.083, 0.25, 0.5, 1, 2, 4, and 8 hours prior to the administration of MES test, where 6 seconds where 6 seconds without a seizure was considered protected.

[12] = Rat PK at equimolar dose to Ezogabine (20 mg/kg) in 0.5% methylcellulose; conditions: male cannulated rats; equimolar to Ezogabine 20 mg/kg; 0.5% methylcellulose; analyte the dosed prodrug
Procedure: (§4) Blood samples were collected at the same time points over 24 hours to generate a concentration time profile. Two male rats were dosed per group. Plasma samples were analyzed by LC/MS/MS and the resulting concentration time profiles and PK parameters are provided.
as §4, §4

[13] = test system: formalin inflammatory model; assay: Formalin inflammatory pain model (hind paw flick/lick); type: in vivo; conditions: male CD-1 mouse; 100 mg/kg SC 30 minutes before 5% formalin; both phases (0-10 and 15-40 min)
Procedure: Compound 4 was assessed in the […] formalin inflammatory model. The number of flicks/licks of a male CD-1 mouse in the acute phase 0-10 minute and the inflammatory phase from 15-40 min after intraplantar administration of 50 μL of 5% formalin was recorded. […] Data is presented over the duration of the observation periods in 2 minute bins.

Chain of Human Kv7.2/7.3 (O43526 whole entry): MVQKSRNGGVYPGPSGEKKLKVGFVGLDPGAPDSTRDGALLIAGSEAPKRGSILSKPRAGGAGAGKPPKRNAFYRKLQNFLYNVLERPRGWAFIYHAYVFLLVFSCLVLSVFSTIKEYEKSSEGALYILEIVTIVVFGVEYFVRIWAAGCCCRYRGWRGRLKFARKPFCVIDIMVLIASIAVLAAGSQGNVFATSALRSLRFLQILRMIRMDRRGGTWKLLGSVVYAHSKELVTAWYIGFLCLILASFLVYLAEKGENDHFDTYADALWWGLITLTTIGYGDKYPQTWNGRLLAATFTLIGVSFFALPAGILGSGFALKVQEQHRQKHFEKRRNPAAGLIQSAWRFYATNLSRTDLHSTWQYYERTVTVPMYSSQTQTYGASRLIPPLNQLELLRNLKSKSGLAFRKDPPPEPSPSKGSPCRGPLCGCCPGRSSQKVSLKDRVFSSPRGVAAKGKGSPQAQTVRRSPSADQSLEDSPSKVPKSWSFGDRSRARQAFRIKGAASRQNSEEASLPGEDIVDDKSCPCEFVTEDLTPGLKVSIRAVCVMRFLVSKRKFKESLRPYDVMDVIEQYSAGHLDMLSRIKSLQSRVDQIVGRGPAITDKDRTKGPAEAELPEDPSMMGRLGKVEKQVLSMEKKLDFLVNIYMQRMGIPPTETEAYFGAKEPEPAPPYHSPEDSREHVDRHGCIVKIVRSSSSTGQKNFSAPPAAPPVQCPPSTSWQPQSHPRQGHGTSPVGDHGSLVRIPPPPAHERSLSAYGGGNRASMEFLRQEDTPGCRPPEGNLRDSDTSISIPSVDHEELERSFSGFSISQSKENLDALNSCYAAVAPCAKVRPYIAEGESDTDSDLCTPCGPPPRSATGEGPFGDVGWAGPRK
Chain of Human Kv7.2/7.3 (O43525 whole entry): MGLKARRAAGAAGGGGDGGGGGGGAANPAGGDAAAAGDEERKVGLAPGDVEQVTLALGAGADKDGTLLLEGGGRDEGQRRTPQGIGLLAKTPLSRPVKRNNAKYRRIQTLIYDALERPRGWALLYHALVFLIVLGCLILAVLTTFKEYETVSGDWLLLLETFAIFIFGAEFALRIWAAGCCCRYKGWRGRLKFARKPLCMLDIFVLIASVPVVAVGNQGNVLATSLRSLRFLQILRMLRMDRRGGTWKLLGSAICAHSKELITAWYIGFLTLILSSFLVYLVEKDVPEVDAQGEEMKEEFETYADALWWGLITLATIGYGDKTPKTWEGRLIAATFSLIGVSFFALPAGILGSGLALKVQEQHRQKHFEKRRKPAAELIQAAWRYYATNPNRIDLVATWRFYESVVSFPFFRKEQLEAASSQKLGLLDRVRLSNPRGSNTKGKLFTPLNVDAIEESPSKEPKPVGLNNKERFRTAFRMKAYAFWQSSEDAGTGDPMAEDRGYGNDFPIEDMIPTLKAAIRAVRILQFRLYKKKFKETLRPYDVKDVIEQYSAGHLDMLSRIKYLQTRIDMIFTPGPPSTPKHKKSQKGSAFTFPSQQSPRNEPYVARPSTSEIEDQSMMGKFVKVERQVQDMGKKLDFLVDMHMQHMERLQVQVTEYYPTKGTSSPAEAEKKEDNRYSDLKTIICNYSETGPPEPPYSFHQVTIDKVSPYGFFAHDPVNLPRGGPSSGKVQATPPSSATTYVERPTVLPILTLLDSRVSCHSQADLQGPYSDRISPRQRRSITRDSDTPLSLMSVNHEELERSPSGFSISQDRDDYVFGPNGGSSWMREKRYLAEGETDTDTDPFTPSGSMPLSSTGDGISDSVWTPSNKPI

`CCOC(=O)Nc1ccc(NCc2ccc(F)cc2)cc1N` [Compound 1, Ezogabine] gave a Cmax/D [1] of 148 ng/mL/mg/kg, an AUClast/D ([1]; 6 h) of 190 ng·h/mL/mg/kg and a Cmax/D ([2]; male SD rat, PO 20 mg/kg, analyte Cmpd 1) of 44.8 ng/mL/mg/kg. The AUClast/D ([2]; male SD rat, PO 20 mg/kg, analyte Cmpd 1, 24 h) was 280 ng·h/mL/mg/kg, the EC50 (Human Kv7.2/7.3) was 1600 nM and the “% Conversion to dimer” value ([3]; Time 0) was 0%. For the same compound, the Concentration of dimer ([3]; Time 0) was 0.00 ng/mL, the “% Conversion to dimer” value ([3]; Time 1 h) was 0.250% and the Concentration of dimer ([3]; Time 1 h) was 19.5 ng/mL. For the same compound, the “% Conversion to dimer” value ([3]; Time 4 h) was 7.95%, the Concentration of dimer ([3]; Time 4 h) was 623 ng/mL and the “% Conversion to dimer” value ([3]; Time 8 h) was 25.2%. The Concentration of dimer ([3]; Time 8 h) was 1980 ng/mL, the “Stability at low pH” value ([3]; low pH (1 N HCl) and simulated gastric fluid) was “degrades and forms a chromophore dimer” and the “% Remaining” value ([4]; 0.1N HCl, room temp., normal light, 267 h) was 50.7%. For the same compound, the “% Remaining” value ([4]; 1N HCl, room temp., normal light, 267 h) was 68.2%, the “% Remaining” value ([4]; Acetonitrile, room temp., normal light, 219 h) was 44.9% and the “% Remaining” value ([4]; Methanol, room temp., normal light, 267 h) was 41.3%. For the same compound, the “Colour of stability solution” value ([4]; acid solutions, room temperature) was “turning light purple (indicating degradation) by Day 2”, the “Colour of stability solution” value ([4]; organic solvents, room temperature) was “did not begin turning purple until Day 7” and the Solubility ([5]; 0.1N NaCl) was 0.04 g/L (≈ 0.132 mM). The Solubility ([5]; 0.1N NaOH) was 0.04 g/L (≈ 0.132 mM), the Solubility ([5]; Ethanol) was 20 g/L (≈ 65.9 mM) and the Solubility ([5]; Methanol) was 54 g/L (≈ 178 mM). For the same compound, the Solubility ([5]; Water) was 0.05 g/L (≈ 0.165 mM), the Solubility ([5]; listed as 0.1 Na2HPO4, determined in 0.1N K2HPO4) was 0.18 g/L (≈ 0.593 mM) and the “Time to degradation with light” value [6] was 3 to 7 days. The “Adverse reaction: abnormal coordination” value [7] was 7%, the “Adverse reaction: aphasia” value [7] was 4% and the “Adverse reaction: asthenia” value [7] was 5%. The “Adverse reaction: balance disorder” value [7] was 4%, the “Adverse reaction: blurred vision” value [7] was 5% and the “Adverse reaction: confusional state” value [7] was 9%. For the same compound, the “Adverse reaction: diplopia” value [7] was 7%, the “Adverse reaction: disturbance in attention” value [7] was 6% and the “Adverse reaction: dizziness” value [7] was 23%. For the same compound, the “Adverse reaction: dysarthria” value [7] was 4%, the “Adverse reaction: fatigue” value [7] was 15% and the “Adverse reaction: gait disturbance” value [7] was 4%. The “Adverse reaction: memory impairment” value [7] was 6%, the “Adverse reaction: somnolence” value [7] was 22% and the “Adverse reaction: tremor” value [7] was 8%. For the same compound, the “Adverse reaction: vertigo” value [7] was 8%.
In the case of `CCOC(=O)Nc1ccc(NCc2ccc(F)cc2)cc1NC(=O)[C@@H](N)CCCCN` [Compound 4], the Solubility ([8]; 0.1N HCl) is reported as greater than 20 mg/mL, the Solubility ([8]; 0.1 N Na2HPO4, aqueous buffer, thermodynamic from solid, read-out: Solubility (freely soluble at tested concentration)) is reported as greater than 1 mg/mL and the Solubility ([8]; 0.1N NaCl) is reported as greater than 10 mg/mL. The Solubility ([8]; 0.1 N NaCl, saline or isotonic, thermodynamic from solid, read-out: Solubility (freely soluble at tested concentration)) was greater than 10 mg/mL, the Solubility ([8]; 0.1N NaOH) was greater than 1 mg/mL and the Solubility ([8]; 0.1 N NaOH, aqueous buffer, thermodynamic from solid, read-out: Solubility (freely soluble at tested concentration)) was greater than 1 mg/mL. It also gave a Solubility ([8]; 0.1 Na2HPO4) greater than 1 mg/mL, a Solubility ([8]; Ethanol) greater than 75 mg/mL and a Solubility ([8]; Methanol) greater than 75 mg/mL. For the same compound, the Solubility ([8]; Water) was greater than 20 mg/mL, the Solubility ([8]; ethanol, organic solvent or mixture, thermodynamic from solid, read-out: Solubility (freely soluble at tested concentration)) was greater than 75 mg/mL and the Solubility ([8]; methanol, organic solvent or mixture, thermodynamic from solid, read-out: Solubility (freely soluble at tested concentration)) was greater than 75 mg/mL. It also gave a Solubility ([8]; saline or isotonic, 0.9% w/v NaCl, for in vivo studies, read-out: Solubility (formulated as freely soluble solution)) of no less than 150 mg/mL, a Solubility ([8]; simulated gastric fluid, thermodynamic from solid, 0.1N HCl, read-out: Solubility (freely soluble at tested concentration)) greater than 20 mg/mL and a Solubility ([8]; water, thermodynamic from solid, read-out: Solubility (freely soluble at tested concentration)) greater than 20 mg/mL. The “Reduction in peak area” value ([9]; 0.1N NaOH) was greater than 50%, the Stability in solvent ([9]; all test conditions except 0.1 N NaOH) was “appears stable” and the “Time by which prodrug is degraded in plasma” value ([10]; mouse) was no more than 6 h. For the same compound, the Plasma stability ([10]; rat, 6 h) was “stable through 6 hours”, the “Percent remaining in plasma” value ([10]; rat, plasma, 23 h) was “below 50%” and the “Exposure of the prodrug itself in systemic circulation” value ([2]; rat, in vivo, po) was “slightly more detectable”. For the same compound, the “Activity against the primary target of Kv7.2/7.3” value (Human Kv7.2/7.3; Human Kv7.2/7.3 cells, FluxOR fluorescence, 0.03 to 30 μM) was “inactive”, the “Protection from MES induced seizures” value ([11]; 2 through 8 hours post dose) was “fully protected” and the “Protection from MES induced seizures” value ([11]; 1 h post dose) was “almost fully protected”. The AUClast/D [12] was 6.26 ng·h/mL/mg/kg, the Cmax/D [12] was 2.34 ng/mL/mg/kg and the “Reduction in behavioral response (flicks/licks) compared to vehicle” value [13] was 50%. For the same compound, the “Colour of stability solution” value [4] was “remained clear and colorless through Day 18”, the “Ezogabine Area (formed from the prodrug)” value ([4]; 0.1N HCl, room temp., normal light, 269 h) was 0 mAU and the “Ezogabine Area (formed from the prodrug)” value ([4]; 1N HCl, room temp., normal light, 269 h) was 0 mAU. For the same compound, the “Ezogabine Area (formed from the prodrug)” value ([4]; 2N HCl 37C, 436 h) was 167 mAU, the “Ezogabine Area (formed from the prodrug)” value ([4]; 2N HCl, room temp., normal light, 269 h) was 38 mAU and the “Ezogabine Area (formed from the prodrug)” value ([4]; Methanol, room temp., normal light, 437 h) was 0 mAU. The “Ezogabine Area (formed from the prodrug)” value ([4]; PBS, room temp., normal light, 435 h) was 0 mAU, the “Degradation / conversion to ezogabine in solution” value ([4]; acidic solutions and organic solvents, up to 3 weeks) was “very little degradation to ezogabine” and the “% Remaining” value ([4]; 437 h) was 98.5%. The “% Remaining” value ([4]; buffer, 435 h) was 99.2% and the “% Remaining” value ([4]; buffer, 436 h) was 94.9%.

Reference: patent US20240208896A1, “PRODRUGS OF KV7 CHANNEL OPENERS” (Xyzagen, Inc., priority 2021, published 2024)
